Experimental data reported in patent US11779664B2, “Targeted contrast agents for MRI of alpha-synuclein deposition” (Texas Children's Hospital, priority 2020, dated 2023).
Entries after “also recorded” stand apart in the source; their conditions may differ.

How the values were obtained:
[1] = target: T1, α-syn fibrils (Homo sapiens, UniProt P37840); assay: α-Syn fibril/ligand binding assay (fluorescence saturation binding); conditions: for selectivity for α-syn versus Aβ fibrils (comparison of Kd values): Kd Aβ fibrils vs Kd α-syn fibrils; for Kd: synthetic α-syn fibrils 2.5 μM, PBS, 37° C., 1 h
T1 construct: purchased R-peptide S-1001-2
Procedure: To this suspension was added 0.2 mL phosphate buffer (10 mM, pH 7.5). The soluble materials were removed by spinning for 5 min in a centrifuge (18000 g/s). The process was repeated four times. After the fourth time, the peptide was transferred into a microtube (200 μl), and 2.5 μl of 300 mM MnCl (made in water) was added. […] The fibrils formed were spun down at 21,000 g/s for 6 min. The supernatant was discarded, and the fibril pellet was resuspended in 200 μl PBS buffer (pH=7.4).
The mixture was incubated at 37° C. for 1 h with shaking. The mixture was spun down at 21,000 g/s for 15 min to separate the fibrils. The precipitate was washed twice with Tris-HCl and resuspended in 200 μL buffer. […] All data points were performed in triplicate. The Kd and the maximal number of binding sites (Bmax) values were determined by fitting the data to the equation Y=Bmax×X/(X+Kd) by nonlinear regression using MATLAB software (R2019B).

[2] = target: T2, α-syn pathology (Lewy pathology) in human PD brain tissue (Homo sapiens, UniProt P37840); assay: Fluorescent staining of post-mortem human PD brain tissue sections; conditions: frontal cortex sections, co-stained with Syn211 or Syn303, confocal microscopy
T2 construct: tissue NIH Neurobiobank; host or cells: post-mortem human PD brain sections (frontal cortex, pons)
Procedure: Sections from the pons and frontal-cortex of the PD brain were permeabilized and treated sequentially with antibody [Anti-alpha-Synuclein (aa 121-125) Antibody, clone Syn 211] and 1 μM solution of each compound and visualized by confocal microscopy. […] Column II depicts ligand fluorescence. Column III depicts fluorescence from the antibody. Column IV is a composite image created by merging the first three images. […] The pattern and labeling intensity appear similar in the antibody channel. […] In up close Z-stacked images of the treated tissue (Row C), the pathology appears to surround dark holes (arrows) in the ligand and antibody channels.
To further characterize the sites labeled by the ligands and antibody Syn211 tissue staining experiments, contiguous cortical sections were treated with compound 8 and then either Syn211 or Syn303. As expected, the sections treated with compound 8 and Syn211 (FIG. 17, first row) show identical ligand and antibody labeling patterns that colocalize in the composite image. Both the ligand and antibody appear to label all forms of pathology present on the tissue. […]
Midbrain tissue (Frontal cortex 5469) was embedded with Tissue-Tek O.C.T. Compound and kept in liquid nitrogen for 30 min. […] The tissue was imaged with Lecia DMi8 Motorized Fluorescence Microscope using standard excitation/emission filters for Alexa Fluor 488 or Alexa Fluor 647.

[3] = tested on: β-amyloid plaques in human AD brain tissue; assay: Fluorescent staining of post-mortem human AD brain tissue sections; conditions: cortical sections, co-stained with 4G8 antibody
From the text: To assess the observed selectivity in α-syn versus Aβ fibril binding on aggregates in human tissue, equimolar concentrations of ligands 8, 32, and 37 were further evaluated on PD tissue as described above, alongside cortical sections from neuropathologically verified post-mortem brain samples of AD patients. […] A similar labeling pattern and efficiency are observed in the antibody channel (column III). […] The antibody, anti-β-Amyloid, 17-24 Antibody (4G8), highlights both dense core and diffuse Aβ pathology (column III).
Midbrain tissue (Frontal cortex 5590) was embedded with Tissue-Tek O.C.T. Compound and kept in liquid nitrogen for 30 mins. The embedded tissue was sliced into 30 μm thick sections with Lecia Biosystems Cryostats under −20° C. and mounted onto Precleaned Microscope Slides. The section was washed with 1× PBST two times and then loaded into 10% formalin solution for 20 mins. The section was washed with 1× PBS three times and permeabilized with 0.1% Triton-X 100 for 10 min. The section was washed with 1× PBS two times and incubated with 2% normal Donkey serum at room temperature for 1 h. […] The tissue was imaged with Lecia DMi8 Motorized Fluorescence Microscope using standard excitation/emission filters for Alexa Fluor 488 or Alexa Fluor 647.

Compound: O=C(O)c1ccc(-c2ccc(/C=C/C=C3\Cc4ccc(O)cc4C3=O)cc2)cc1 [compound 32, 4′-((E)-3-((E)-6-Hydroxy-1-oxo-1,3-dihydro-2H-inden-2-ylidene)prop-1-en-1-yl)-[1,1′-biphenyl]-4-carboxylic acid]
- selectivity for α-syn versus Aβ fibrils (comparison of Kd values) [1]: 26 fold
- Kd [1]: 18.8 nM
- labeling of Lewy pathology in PD brain sections [2]: avid labeling of Lewy pathology

Compound: COc1cc(/C=C/C=C2\Cc3ccccc3C2=O)ccc1O [compound 8, (E)-2-((E)-3-(4-Hydroxy-3-methoxyphenyl)allylidene)-2,3-dihydro-1H-inden-1-one]
- selectivity for α-syn versus Aβ fibrils (comparison of Kd values) [1]: 14.4 fold
- Kd [1]: 9.7 nM
- labeling of Lewy pathology in PD brain sections [2]: avidly labels Lewy pathology; also recorded: labels all conformations of the pathology; also recorded: avid labeling of both large and fine deposits of the pathology
- labeling of Aβ pathology in AD brain sections [3]: mostly dense core Aβ plaques
